Experiments:
[1] = Inhibition of HIV reverse transcriptase transfected in HEK293T cells assessed as reduction in viral replication measured at 48 hrs postinfection by luciferase reporter based single-cycle non replicative phenotypic assay; assay type: cell-based; conditions: Human immunodeficiency virus 1, HEK-293T
[2] = Cytotoxicity against mouse EL4.3 cells assessed as reduction in cell viability by MTT assay; assay type: cell-based

SMILES	IC50 ([1]; read-out: IC50) [µM]	CC50 [2] [µM]	IC50 [1] [µM]
CCc1nnn(Cc2cccc(C#N)c2)c1CCO	> 100	> 100	–
OCc1cn(Cc2ccccc2)nn1	> 83.5	> 100	–
CCc1nn(CCO)nc1Cc1cc(Cl)cc(Cl)c1	23.8	84.7	–
Cc1ccnc2c1NC(=O)c1cccnc1N2C1CC1 [NEVIRAPINE]	–	–	0.091
CCc1nn(CC)nc1C(OC)c1cc(Cl)cc(Cl)c1 (stereo not drawn)	> 49	89	–
CCc1nn(CCO)nc1Cc1cc(C)cc(C)c1	> 100	> 100	–
CCc1nnn(Cc2cc(C)cc(C)c2)c1CCO	> 100	> 100	–
CCc1nnn(Cc2ccccc2)c1CCO	> 100	> 100	–
CCc1c(CCO)nnn1Cc1cc(Cl)cc(Cl)c1	45.2	> 100	–
CCc1nn(CCO)nc1C(OC)c1cc(Cl)cc(Cl)c1 (stereo not drawn)	14.1	95.1	–
CCc1nn(CCO)nc1Cc1cccc(C#N)c1	> 100	> 100	–
CCc1c(CCO)nnn1Cc1ccccc1	> 100	> 100	–
Cc1cc(C)cc(Cn2cc(CO)nn2)c1	27.8	> 100	–
CCc1c(CCO)nnn1Cc1cccc(C#N)c1	> 100	> 100	–
CCc1nnn(Cc2cc(Cl)cc(Cl)c2)c1CCO	72.6	> 100	–
OCc1cn(Cc2cc(C(F)(F)F)cc(C(F)(F)F)c2)nn1	> 24.5	> 53.4	–
N#Cc1cccc(Cn2cc(CCO)nn2)c1	> 83.5	> 100	–
